# According to the NIST ThermoML archive (doi:10.1016/j.fluid.2017.12.026):
# Several values for one entry are separate records, joined by “and”; a condition that tells them apart may be missing. Equal entries are not always repeated. ± gives the expanded uncertainty stated by the source.
# Settings: Gas, Coaxial cylinder method
structure (smiles),measurement,setting,value
CCCCC [pentane],thermal conductivity,"478.5 K, 46675 kPa",0.1028 ± 0.0038 W/m/K
same,thermal conductivity,"479.9 K, 100 kPa",0.03642 ± 0.0013 W/m/K
same,thermal conductivity,"482.02 K, 100 kPa",0.03645 ± 0.0013 W/m/K
same,thermal conductivity,"482.02 K, 2180 kPa",0.03995 ± 0.0014 W/m/K
same,thermal conductivity,"484.5 K, 7555 kPa",0.07149 ± 0.0025 W/m/K
same,thermal conductivity,"484.5 K, 10055 kPa",0.0768 ± 0.0027 W/m/K
same,thermal conductivity,"484.5 K, 19975 kPa",0.08666 ± 0.0031 W/m/K
same,thermal conductivity,"484.5 K, 25175 kPa",0.09003 ± 0.0032 W/m/K
same,thermal conductivity,"484.5 K, 27775 kPa",0.09214 ± 0.0033 W/m/K
same,thermal conductivity,"485.84 K, 1820 kPa",0.03954 ± 0.0014 W/m/K
same,thermal conductivity,"485.84 K, 1830 kPa",0.03953 ± 0.0014 W/m/K
same,thermal conductivity,"485.84 K, 1886 kPa",0.03962 ± 0.0014 W/m/K
same,thermal conductivity,"485.84 K, 2000 kPa",0.04018 ± 0.0014 W/m/K
same,thermal conductivity,"485.84 K, 2180 kPa",0.04056 ± 0.0014 W/m/K
same,thermal conductivity,"485.84 K, 2260 kPa",0.04079 ± 0.0014 W/m/K
same,thermal conductivity,"485.84 K, 2280 kPa",0.04036 ± 0.0014 W/m/K
same,thermal conductivity,"485.84 K, 2300 kPa",0.04075 ± 0.0014 W/m/K
same,thermal conductivity,"485.84 K, 2560 kPa",0.04155 ± 0.0014 W/m/K
same,thermal conductivity,"487.28 K, 1820 kPa",0.03982 ± 0.0014 W/m/K
same,thermal conductivity,"487.3 K, 100 kPa",0.03739 ± 0.0013 W/m/K
same,thermal conductivity,"497.3 K, 988 kPa",0.03935 ± 0.0014 W/m/K
same,thermal conductivity,"497.3 K, 2518 kPa",0.04191 ± 0.0015 W/m/K
same,thermal conductivity,"497.3 K, 9975 kPa",0.07419 ± 0.0026 W/m/K
same,thermal conductivity,"497.3 K, 19975 kPa",0.08618 ± 0.003 W/m/K
same,thermal conductivity,"497.3 K, 30375 kPa",0.09354 ± 0.0034 W/m/K
same,thermal conductivity,"497.3 K, 40275 kPa",0.09941 ± 0.0037 W/m/K
same,thermal conductivity,"497.3 K, 49575 kPa",0.1037 ± 0.0039 W/m/K
same,thermal conductivity,"497.65 K, 100 kPa",0.03875 ± 0.0014 W/m/K
same,thermal conductivity,"500.96 K, 100 kPa",0.03915 ± 0.0014 W/m/K
same,thermal conductivity,"523 K, 988 kPa",0.0425 ± 0.0015 W/m/K
same,thermal conductivity,"523 K, 2508 kPa",0.04516 ± 0.0016 W/m/K
same,thermal conductivity,"523 K, 17975 kPa",0.0821 ± 0.0029 W/m/K
same,thermal conductivity,"523 K, 20175 kPa",0.08444 ± 0.003 W/m/K
same,thermal conductivity,"523 K, 25475 kPa",0.0885 ± 0.0032 W/m/K
same,thermal conductivity,"523 K, 30475 kPa",0.09129 ± 0.0033 W/m/K
same,thermal conductivity,"523 K, 40175 kPa",0.09665 ± 0.0036 W/m/K
same,thermal conductivity,"523 K, 43475 kPa",0.09824 ± 0.0036 W/m/K
same,thermal conductivity,"523 K, 49975 kPa",0.1014 ± 0.0038 W/m/K
same,thermal conductivity,"526.4 K, 2200 kPa",0.04473 ± 0.0016 W/m/K
same,thermal conductivity,"526.4 K, 2300 kPa",0.0457 ± 0.0016 W/m/K
same,thermal conductivity,"526.4 K, 2400 kPa",0.0457 ± 0.0016 W/m/K
same,thermal conductivity,"526.4 K, 2500 kPa",0.0457 ± 0.0016 W/m/K
same,thermal conductivity,"526.4 K, 2600 kPa",0.04565 ± 0.0016 W/m/K
same,thermal conductivity,"526.4 K, 2700 kPa",0.0456 ± 0.0016 W/m/K
same,thermal conductivity,"526.4 K, 2800 kPa",0.04599 ± 0.0016 W/m/K
same,thermal conductivity,"526.4 K, 2900 kPa",0.0465 ± 0.0016 W/m/K
same,thermal conductivity,"526.4 K, 3000 kPa",0.04712 ± 0.0016 W/m/K
same,thermal conductivity,"526.4 K, 3300 kPa",0.04771 ± 0.0017 W/m/K
same,thermal conductivity,"526.4 K, 3600 kPa",0.04853 ± 0.0017 W/m/K
same,thermal conductivity,"526.4 K, 3700 kPa",0.04799 ± 0.0017 W/m/K
same,thermal conductivity,"526.4 K, 3800 kPa",0.04888 ± 0.0017 W/m/K
same,thermal conductivity,"526.54 K, 2200 kPa",0.04492 ± 0.0016 W/m/K
same,thermal conductivity,"526.57 K, 100 kPa",0.04253 ± 0.0015 W/m/K
same,thermal conductivity,"576.1 K, 100 kPa",0.04957 ± 0.0017 W/m/K
same,thermal conductivity,"576.1 K, 988 kPa",0.05094 ± 0.0018 W/m/K
same,thermal conductivity,"576.1 K, 2417 kPa",0.05148 ± 0.0018 W/m/K
same,thermal conductivity,"576.1 K, 2508 kPa",0.05179 ± 0.0018 W/m/K
same,thermal conductivity,"576.1 K, 4048 kPa",0.05495 ± 0.0019 W/m/K
same,thermal conductivity,"576.1 K, 20475 kPa",0.08464 ± 0.003 W/m/K
same,thermal conductivity,"576.1 K, 22475 kPa",0.08627 ± 0.0031 W/m/K
same,thermal conductivity,"576.1 K, 30275 kPa",0.09057 ± 0.0033 W/m/K
same,thermal conductivity,"576.1 K, 30575 kPa",0.09 ± 0.0032 W/m/K
same,thermal conductivity,"576.1 K, 40175 kPa",0.09709 ± 0.0036 W/m/K
same,thermal conductivity,"576.1 K, 40975 kPa",0.09601 ± 0.0035 W/m/K
same,thermal conductivity,"576.1 K, 51275 kPa",0.1023 ± 0.0039 W/m/K
same,thermal conductivity,"618.2 K, 7584 kPa",0.06457 ± 0.0022 W/m/K
same,thermal conductivity,"618.2 K, 9985 kPa",0.06826 ± 0.0024 W/m/K
same,thermal conductivity,"618.2 K, 11475 kPa",0.07159 ± 0.0025 W/m/K
same,thermal conductivity,"618.2 K, 12945 kPa",0.07331 ± 0.0026 W/m/K
same,thermal conductivity,"618.2 K, 12985 kPa",0.07397 ± 0.0026 W/m/K
same,thermal conductivity,"618.2 K, 14975 kPa",0.07629 ± 0.0027 W/m/K
same,thermal conductivity,"618.2 K, 18875 kPa",0.08227 ± 0.0029 W/m/K and 0.08277 ± 0.0029 W/m/K
same,thermal conductivity,"621.2 K, 100 kPa",0.05581 ± 0.0019 W/m/K
same,thermal conductivity,"621.2 K, 10375 kPa",0.06836 ± 0.0024 W/m/K
same,thermal conductivity,"621.2 K, 15375 kPa",0.07737 ± 0.0027 W/m/K
same,thermal conductivity,"621.2 K, 20275 kPa",0.08383 ± 0.003 W/m/K
same,thermal conductivity,"621.2 K, 22975 kPa",0.08581 ± 0.0031 W/m/K
same,thermal conductivity,"621.2 K, 30175 kPa",0.09232 ± 0.0033 W/m/K
same,thermal conductivity,"621.2 K, 39275 kPa",0.09614 ± 0.0035 W/m/K
same,thermal conductivity,"621.2 K, 40375 kPa",0.09714 ± 0.0036 W/m/K
same,thermal conductivity,"621.2 K, 49975 kPa",0.1015 ± 0.0038 W/m/K
same,thermal conductivity,"621.2 K, 53675 kPa",0.1031 ± 0.0039 W/m/K
same,thermal conductivity,"621.2 K, 53975 kPa",0.103 ± 0.0039 W/m/K
